Results from patent publication US9750755B2, “Antimicrobial compositions and related methods” (DeLaval Holding AB, priority 2006, dated 2017).

Tests used:
S. aureus (ATCC 6538) = test: Modified EN 1656 dilution neutralization test, milk as interferent, 30 seconds contact; type: cell-based, Staphylococcus aureus; settings: 10% lactic acid used alone, typical
Experimental: (§1) The test bacteria were Eschericia coli (ATCC 11229), which were originally isolated from mastitis infection and obtained on commercial order from Mastitlaboratoriet, SVA, and Staphococcus aureus (ATCC6538 from Microbiologics, St. Cloud, Minn.), which was also isolated from mastitis infection.
(§2) According to a modified EN1656 dilution neutralization method, freeze dried E. coli (ATCC 11229) and S. aureus (ATCC 6538) were hydrated, grown for four days and transferred. Then bacteria were diluted to form a suspension to have an initial concentration of about 10^8 cfu/mL.
(§3) Freeze-dried pellets of E. coli (ATCC 11229) and S. aureus (ATCC 6538) were hydrated, placed in test tubes containing nutrient agar and incubated at 37° C. for 24 hours. Sterile buffer (0.25 M phosphate adjusted to pH 7.2) was used to dilute and transfer the bacteria to additional nutrient agar tubes, which were incubated for another 24 hours. S. aureus was then diluted with buffer and transferred to nutrient agar in French bottles, and E. coli was diluted and transferred to fresh nutrient agar tubes. Both types of bacteria were incubated at 37° C. for 72 hours. E. coli was then diluted and transferred to nutrient agar in French bottles. […]
(§4) The plates with bacterial populations between 25 and 250 were counted and results were expressed as logarithmic reductions according to EN 1656 test method.

E. coli (ATCC 11229) = test: as above; type: cell-based, Escherichia coli; settings: 10% lactic acid used alone, typical
Experimental: as §1, §2, §3, §4

Question: CC(O)C(=O)O (stereo not drawn) [lactic acid, L(+)-2-Hydroxypropanoic acid] was tested. Which “log reduction in S. aureus concentration” value (S. aureus (ATCC 6538)) did it give?
Answer: less than a three log reduction

Question: What about the “log reduction in E. coli concentration” value (E. coli (ATCC 11229)) of the same compound?
Answer: five log reduction
